Three molecules from US7691601B2, “Medium for detecting and/or identifying of microorganisms” (priority 2003, dated 2010) can be followed below.

In one assay the test system is free esterases in stools. In words: Coloration at the point of deposit of the stool on Candida detection medium. It counts as biochemical. Further details: key: 0=no coloration; 0.5=trace of coloration; 1=weak coloration; 2=strong coloration. Conditions: Table 4. The method, then: (§1) Preparation of the detection medium: A volume of 250 ml of detection medium is prepared from a powdered medium having the following composition:
(§2) Melting is carried out at 100° C., and the medium is autoclaved at 121° C. for 15 minutes. The additives are then added to the medium: Magenta C8 (500 mg/l; B-7102, BIOSYNTH, Staad, Switzerland); X-glucoside (75 mg/l; B-7250, BIOSYNTH, Staad, Switzerland); cefsulodine (10 mg/l; C 4786, Sigma, St Quentin Fallavier, France), and also the esterase inhibitor: • ? O,O-diethyl p-nitrophenyl phosphate: 5 mg/l • ? O,O-dimethyl p-nitrophenyl phosphate: 25 mg/l or • ? O,O-di-(2-chloroethyl)-O-(3-chloro-4-methylcoumarin-7-yl)phosphate: 75 mg/l
(§3) The various selection media thus obtained are then poured into Petri dishes.
(§4) Seeding of yeast of the Candida genus: 10 μl of stools are deposited onto a Petri dish, and this stool suspension is mixed or not mixed with 10 μl of a suspension of Candida and isolated as 3 dials on a Petri dish. Various stools and various strains of Candida genus originating from the applicant's collection are used according to this protocol. The Petri dishes are incubated at 37° C. for 24 hours.
(§5) The appearance of a coloration at the point of deposit of the stool and in the Candida colonies is read according to a semi-quantitative scale: • 0=absence of coloration • 0.5=trace coloration • 1=weak coloration • 2=strong coloration.

The subject of assay [1] is Candida albicans. Put plainly: Coloration of Candida albicans colonies on detection medium. The format is cell-based. Also on record: key: 0=absence of coloration; 0.5=trace coloration; 1=weak coloration; 2=strong coloration. Conditions: stool B. The procedure: as §1, §2, §3, §4, §5
For assay [2], the system named is Candida dubliniensis. Put plainly: Coloration of Candida dubliniensis colonies on detection medium. The format is cell-based. Further details: key: 0=no coloration; 0.5=trace of coloration; 1=weak coloration; 2=strong coloration. The procedure:
as §1, §2, §3, §4, §5

Assay [3] is described as follows: Colonies column read for stool without added strain, Salmonella detection medium. Further details: key: 0=no coloration; 0.5=trace of coloration; 1=weak coloration; 2=strong coloration. To be noted: no strain. The method, then: as §1
(§6) Melting is carried out at 100° C., and the medium is autoclaved at 121° C. for 15 minutes. The additives are then added to the medium: Magenta C8 (500 mg/l; B-7102, BIOSYNTH, Staad, Switzerland); X-glucoside (75 mg/l; B-7250, BIOSYNTH, Staad, Switzerland); cefsulodine (10 mg/l; C 4786, Sigma, St Quentin Fallavier, France) and various concentrations of the inhibitor O,O-diethyl p-nitrophenyl phosphate (Paraoxon® ethyl; CAS No. 311-45-5; 36186, Riedel-de Haën, St Quentin Fallavier, France; 0; 1; 5 or 10 mg/l).
(§7) The various detection media thus obtained are then poured into Petri dishes.
(§8) Seeding of Salmonella bacteria: 10 μl of stools are deposited onto a Petri dish, this stool suspension is mixed or not mixed with 10 μl of a suspension of Salmonella (0.5 McF) and isolated as 3 dials on a Petri dish. Various […] and various Salmonella strains originating from the applicant's collection are used according to this protocol. The Petri dishes are incubated at 37° C. for 24 hours. The appearance of a coloration at the point of deposit of the stool (“deposit” column) and at the Salmonella colony (“colony” column) is read according to a semi-quantitative scale: • 0=no coloration • 0.5=trace of coloration • 1=weak coloration • 2=strong coloration The results obtained are given in Table 1.
Melting is carried out at 100° C., and the medium is autoclaved at 121° C. for 15 minutes. The additives are then added to the medium: Magenta C8 (500 mg/l; B-7102, BIOSYNTH, Staad, Switzerland); X-glucoside (75 mg/l; B-7250, BIOSYNTH, Staad, Switzerland); cefsulodine (10 mg/l; C 4786, Sigma, St Quentin Fallavier, France) and various concentrations of the inhibitor O,O-dimethyl p-nitrophenyl phosphate (Paraoxon® methyl; CAS No. 950-35-6; Riedel-de Haën, St Quentin Fallavier, France; 5, 10, 25 mg/l).
(§9) Seeding of Salmonella bacteria: The Petri dishes are inoculated, incubated and read as in Example 1.
(§10) Preparation of the detection medium: 250 ml of the medium of Example 1, in which the O,O-diethyl p-nitrophenyl phosphate is replaced with various concentrations of O,O-di-(2-chloroethyl)-O-(3-chloro-4-methylcoumarin-7-yl)phosphate (Haloxon®; CAS No. 321-55-1; R276995, Sigma, St Quentin Fallavier, France; 0; 1; 10; 100 or 1000 mg/l), are prepared according to the method of Example 1.
as §3

For assay [4], the system named is Candida albicans. Put plainly: Coloration of Candida albicans colonies on detection medium. It counts as cell-based. Also on record: key: 0=no coloration; 0.5=trace of coloration; 1=weak coloration; 2=strong coloration. To be noted: stool A. The procedure:
as §1, §2, §3, §4, §5

Another assay deals with Salmonella bacteria. Put plainly: Enzymes originating from the bacteria (Salmonella colonies), overall statement. Conditions: summary in words. The format is cell-based. The method, then: as §8, §10, §3, §9
Another assay has as its system Salmonella Paratyphi A. In words: Coloration of Salmonella Paratyphi A colonies on detection medium. Also on record: key: 0=no coloration; 0.5=trace of coloration; 1=weak coloration; 2=strong coloration. The format is cell-based. The procedure:
as §1, §6, §7, §8, §10, §3, §9

For assay [5], the system named is Candida dubliniensis. In words: Coloration of Candida dubliniensis colonies on detection medium. It counts as cell-based. Also on record: key: 0=absence of coloration; 0.5=trace coloration; 1=weak coloration; 2=strong coloration. Conditions: Table 4, 5 mg/l. The procedure:
as §1, §2, §3, §4, §5

The structures appear in SMILES notation.

Consider `COP(=O)(OC)Oc1ccc([N+](=O)[O-])cc1` [O,O-dimethyl p-nitrophenyl phosphate], for which the Deposit coloration in the assay on free esterases in stools (25 mg/l, stool A, Candida albicans) turned out to be 1; in the assay with free esterases in stools (25 mg/l, stool A, Candida dubliniensis), 1; in the assay on free esterases in stools (25 mg/l, stool A, Candida krusei), 1; in the assay on free esterases in stools (25 mg/l, stool B, Candida albicans), 1; in the assay with free esterases in stools (25 mg/l, stool B, Candida dubliniensis) it was 1; with free esterases in stools (25 mg/l, stool B, Candida krusei) it was 1. Also, the Colonies coloration is 0.5 with Candida albicans [1] (Table 4, 25 mg/l); 1 in the assay on Candida dubliniensis [2] (Table 4, 25 mg/l, stool A); 1 in the assay on Candida dubliniensis [2] (Table 4, 25 mg/l, stool B); 0 in assay [3] (Table 2, 5 mg/l, stool C); 0 in assay [3] (Table 2, 5 mg/l, stool D); 0 in assay [3] (Table 2, 10 mg/l, stool C). For the same molecule, the Colonies coloration was 0 in assay [3] (Table 2, 10 mg/l, stool D); 0 in assay [3] (Table 2, 25 mg/l, stool C); 0 in assay [3] (Table 2, 25 mg/l, stool D); 1 in the assay with Candida albicans [4] (Table 4, 25 mg/l).
As to `Cc1c(Cl)c(=O)oc2cc(OP(=O)(OCCCl)OCCCl)ccc12` [O,O-di-(2-chloroethyl)-O-(3-chloro-4-methylcoumarin-7-yl) phosphate], the “Enzymes originating from the bacteria” value with Salmonella bacteria is “not inhibited”. In addition, the Deposit coloration in the assay with free esterases in stools (75 mg/l, stool A, Candida albicans) is reported as 1; in the assay on free esterases in stools (75 mg/l, stool A, Candida dubliniensis), 1; in the assay on free esterases in stools (75 mg/l, stool A, Candida krusei), 1; in the assay on free esterases in stools (75 mg/l, stool B, Candida albicans), 1; in the assay with free esterases in stools (75 mg/l, stool B, Candida dubliniensis) it was 1; in the assay on free esterases in stools (75 mg/l, stool B, Candida krusei) it was 1. Besides, the Colonies coloration was found to be 0.5 with Candida albicans [1] (Table 4, 75 mg/l); 1 with Candida dubliniensis [2] (Table 4, 75 mg/l, stool A); 1 in the assay with Candida dubliniensis [2] (Table 4, 75 mg/l, stool B); 0 in assay [3] (Table 3, 1 mg/l, stool A); 0 in assay [3] (Table 3, 1 mg/l, stool B); 0 in assay [3] (Table 3, 10 mg/l, stool A). Also, the Colonies coloration in assay [3] (Table 3, 10 mg/l, stool B) was found to be 0; in assay [3] (Table 3, 100 mg/l, stool A), 0; in assay [3] (Table 3, 100 mg/l, stool B) it was 0; in assay [3] (Table 3, 1000 mg/l, stool A) it was 0; in assay [3] (Table 3, 1000 mg/l, stool B) it was 0; with Salmonella Paratyphi A (Table 3, 1 mg/l, stool A), 2. Also, the Colonies coloration in the assay on Salmonella Paratyphi A (Table 3, 1 mg/l, stool B) was 2; with Salmonella Paratyphi A (Table 3, 10 mg/l, stool A), 2; with Salmonella Paratyphi A (Table 3, 10 mg/l, stool B), 2; in the assay on Salmonella Paratyphi A (Table 3, 100 mg/l, stool A) it was 1; with Salmonella Paratyphi A (Table 3, 100 mg/l, stool B) it was 1; with Salmonella Paratyphi A (Table 3, 1000 mg/l, stool A) it was 0.5. Also, the Colonies coloration with Salmonella Paratyphi A (Table 3, 1000 mg/l, stool B) is listed as 0.5; with Candida albicans [4] (Table 4, 75 mg/l) it was 1.
`CCOP(=O)(OCC)Oc1ccc([N+](=O)[O-])cc1` [O,O-diethyl p-nitrophenyl phosphate]: the Deposit coloration in the assay on free esterases in stools (5 mg/l, stool A, Candida albicans) stood at 1; in the assay on free esterases in stools (5 mg/l, stool A, Candida dubliniensis) it was 1; with free esterases in stools (5 mg/l, stool A, Candida krusei) it was 1; with free esterases in stools (5 mg/l, stool B, Candida albicans), 1; with free esterases in stools (5 mg/l, stool B, Candida dubliniensis) it was 1; in the assay on free esterases in stools (5 mg/l, stool B, Candida krusei), 1. Besides, the Colonies coloration in the assay on Candida dubliniensis [5] (stool A) was found to be 0.5; with Candida dubliniensis [5] (stool B), 0.5; in the assay with Candida albicans [1] (Table 4, 5 mg/l), 0.5; in assay [3] (Table 1, 1 mg/l, stool A), 0; in assay [3] (Table 1, 1 mg/l, stool B), 0; in assay [3] (Table 1, 5 mg/l, stool A), 0. Also, the Colonies coloration in assay [3] (Table 1, 5 mg/l, stool B) is reported as 0; in assay [3] (Table 1, 10 mg/l, stool A) it was 0; in assay [3] (Table 1, 10 mg/l, stool B) it was 0; with Salmonella Paratyphi A (Table 1, 1 mg/l, stool A), 1; in the assay with Salmonella Paratyphi A (Table 1, 1 mg/l, stool B), 1; in the assay on Salmonella Paratyphi A (Table 1, 5 mg/l, stool A) it was 1. Besides, the Colonies coloration in the assay on Salmonella Paratyphi A (Table 1, 5 mg/l, stool B) was 1; with Salmonella Paratyphi A (Table 1, 10 mg/l, stool A), 1; with Salmonella Paratyphi A (Table 1, 10 mg/l, stool B) it was 1; in the assay on Candida albicans [4] (Table 4, 5 mg/l), 1.
